Paper PMC4157719, “Arabidopsis membrane-associated acyl-CoA-binding protein ACBP1 is involved in stem cuticle formation” (Journal of Experimental Botany, 2014)

Molecular target: T1, rACBP1 ((His)6-tagged recombinant AtACBP1) (Arabidopsis thaliana, UniProt Q9SM23)
T1 construct: gene ACBP1; (His)6-tagged, soluble fraction of E. coli BL21(DE3), Ni-NTA purified
T1 sequence (Q9SM23 1-338): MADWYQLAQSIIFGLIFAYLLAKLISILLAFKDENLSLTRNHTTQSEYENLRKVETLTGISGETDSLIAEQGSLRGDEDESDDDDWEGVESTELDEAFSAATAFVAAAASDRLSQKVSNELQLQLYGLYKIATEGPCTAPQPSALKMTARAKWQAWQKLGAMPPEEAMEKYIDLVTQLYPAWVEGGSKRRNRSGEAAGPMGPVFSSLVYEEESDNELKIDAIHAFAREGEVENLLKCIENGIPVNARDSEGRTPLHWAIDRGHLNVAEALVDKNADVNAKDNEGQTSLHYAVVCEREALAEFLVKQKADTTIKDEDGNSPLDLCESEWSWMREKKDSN
Assay: isothermal titration calorimetry
Format: binding
Details: not given
Excerpt: isothermal titration calorimetry on rACBP1 ((His)6-tagged recombinant AtACBP1)

`CCCCCCCCCCCCCCCCCCCCCCCC(=O)SCCNC(=O)CCNC(=O)[C@H](O)C(C)(C)COP(=O)(O)OP(=O)(O)OC[C@H]1O[C@@H](n2cnc3c(N)ncnc32)[C@H](O)[C@@H]1OP(=O)(O)O` [C24:0, C24:0-CoA] and `CCCCCCCCCCCCCCCCCCCCCCCCC(=O)SCCNC(=O)CCNC(=O)[C@H](O)C(C)(C)COP(=O)(O)OP(=O)(O)OC[C@H]1O[C@@H](n2cnc3c(N)ncnc32)[C@H](O)[C@@H]1OP(=O)(O)O` [C25:0, C25:0-CoA] are within 1.5-fold of each other in Kd: 2140 ± 130 nM for the first, 1690 ± 110 nM for the second.

Work on `CCCCCCCCCCCCCCCCCCCCCCCCCC(=O)SCCNC(=O)CCNC(=O)[C@H](O)C(C)(C)COP(=O)(O)OP(=O)(O)OC[C@H]1O[C@@H](n2cnc3c(N)ncnc32)[C@H](O)[C@@H]1OP(=O)(O)O` [C26:0, C26:0-CoA] yielded a Kd of 1940 ± 120 nM.

Same assay, conditions: 30 °C; single binding site model

C18:1-CoA and C18:2-CoA are within error of each other in Kd: 760 ± 150 nM for the first, 830 ± 40 nM for the second.

Work on C18:3-CoA yielded a Kd of 440 ± 10 nM.
